We go through 1 compound from patent publication US11371019B2, “Efficient generation of human red blood cells via enriching peripheral blood erythroid progenitors” (Whitehead Institute for Biomedical Research, priority 2016, dated 2022).

The test system of test [1] is TGFBR3^lo mouse BFU-E cells. In words: colony forming assay for large BFU-E colony numbers. The conditions noted are these: culture system; FIG. 12. The format is cell-based. How it is done:
FIG. 12. A chart showing an exemplary colony forming assays were conducted to determine large BFU-E colony numbers from 100 TGFBR3^lo mouse BFU-E cells cultured under the indicated conditions. Colony forming assays were performed at indicated time points.
(§1) For new drug discovery or drug repurposing for treating blood diseases, compounds of interest were added into cell culture after progenitor purification. The efficacy of drugs is evaluated based on total red blood cell production, numbers of erythroid progenitor BFU-E and CFU-E (quantified by colony forming assay) and/or level of fetal globin expression.

Test [2] relates to purified mouse TGFBR3^lo BFU-E cells. In words: total red cell production from purified BFU-E cells in SFELE medium. The conditions noted are these: culture system; FIG. 13. The format is cell-based. Here is the method: FIG. 13. A chart showing the treatment of purified mouse TGFBR3^lo BFU-E cells with DMSO, DEX or TGFβ signaling inhibitor galunisertib. The cells were seeded in SFELE medium supplemented with the test agent.
as §1

On to `Cc1cccc(-c2nn3c(c2-c2ccnc4ccc(C(N)=O)cc24)CCC3)n1` [galunisertib], for which, in test [1], the BFU-E numbers entry was “increase BFU-E numbers”. For the same compound, in test [2], the “total red cell production” value is “increase”.
